Measured values published in patent US12532884B2, “Fungicidal compositions” (SYNGENTA CROP PROTECTION AG, priority 2020, dated 2026).
Where “and” joins values, the source holds several entries; their conditions need not be identical. Equal entries are not always repeated. Where two headings read alike, the source gives them in different places.

What was measured:
Septoria tritici = experiment: Example C2: mixtures against Septoria tritici (leaf blotch), liquid culture; assay type: cell-based; conditions: Zymoseptoria tritici, single component; for inhibition at 0.1 ppm: 100-0 scale (100=no disease growth)
Text: (§1) Certain mixture compositions comprising a compound of formula (I) described above may show a synergistic effect. This occurs whenever the action of an active ingredient combination is greater than the sum of the actions of the individual components. The action to be expected E for a given active ingredient combination obeys the so-called COLBY formula and can be calculated as follows (COLBY, S. R. “Calculating synergistic and antagonistic responses of herbicide combination”. Weeds, Vol. 15, pages 20-22; 1967): • ppm=milligrams of active ingredient (=a.i.) per liter of spray mixture • X=% action by active ingredient A) using p ppm of active ingredient • Y=% action by active ingredient B) using q ppm of active ingredient.
(§2) According to COLBY, the expected (additive) action of active ingredients A)+B) using p+q ppm of active ingredient is:
(§3) If the action actually observed (O) is greater than the expected action (E), then the action of the combination is super-additive, i.e. there is a synergistic effect. In mathematical terms, synergism corresponds to a positive value for the difference of (O-E). In the case of purely complementary addition of activities (expected activity), said difference (O-E) is zero. A negative value of said difference (O-E) signals a loss of activity compared to the expected activity.
(§4) Mycelia fragments or conidia suspensions of a fungus prepared either freshly from liquid cultures of the fungus or from cryogenic storage, are directly mixed into nutrient broth. DMSO solutions of the test compound (max. 10 mg/mL) are diluted with 0.025% Tween20 by a factor of 50 and 10 μl of this solution is pipetted into a microtiter plate (96-well format). The nutrient broth containing the fungal spores/mycelia fragments is then added to give an end concentration of the tested compound. The test plates are incubated in the dark at 24° C. and 96% relative humidity. The inhibition of fungal growth is determined photometrically after 2 to 7 days, depending on the pathosystem, and percent antifungal activity relative to the untreated check is calculated.
(§5) Conidia of the fungus from cryogenic storage were directly mixed into nutrient broth (PDB potato dextrose broth). A DMSO solution of the test compounds was placed into a microtiter plate (96-well format) and the nutrient broth containing the fungal spores was added to it.
The following mixture compositions at the reported concentration (in ppm) in tables C2-3 to C2-5 gave the following disease control in this test Septoria tritici (leaf blotch). Fungicidal activity was evaluated on a 100-0 scale (100=no disease growth; 0=well completely covered by mycelium).

[1] = test system: Puccinia recondita (Brown rust); experiment: Example B: comparative biological activity against Puccinia recondita (brown rust), curative, wheat leaf segments; assay type: in vivo; conditions: 8 dpi
Procedure: Method; Wheat leaf segments are placed on agar in multiwell plates (24-well format). The leaf segments are inoculated with a spore suspension of the fungus and sprayed with test solutions 1 day after inoculation. After appropriate incubation the activity of a compound is assessed 8 dpi (days after inoculation) as curative fungicidal activity.
The data are presented as the percentage of disease control of each compound for the biological tests and testing rates described below in table B1.

Phakopsora pachyrhizi = experiment: Example D: preventative activity against Phakopsora pachyrhizi on soybean (whole plants sprayed, leaf disks inoculated); assay type: in vivo
Text: as §1, §2, §3
Whole soybean plants are treated with the recited active ingredients 4 weeks after planting. 1 day after spraying leaf disks are cut from the first trifoliate leaf. Five repetitions at each rate are conducted. The leaf disks are inoculated with Phakopsora pachyrhizi (Asian soybean rust) one day after treatment. Evaluation of the leaf disks is conducted 11 to 14 days after inoculation and the activity is derived from the relation of the treated vs untreated, infested check. (100=no disease, no damage to the leaf, 0=high infestation, leaf damaged heavily). The rates of the active ingredients used are given in the tables as g active ingredient (a.i.)/ha.

Septoria glycines = experiment: Example C3: mixtures against Septoria glycines (brown spot), liquid culture; assay type: cell-based; conditions: Septoria glycines, single component
Text: This occurs whenever the action of an active ingredient combination is greater than the sum of the actions of the individual components. The action to be expected E for a given active ingredient combination obeys the so-called COLBY formula and can be calculated as follows (COLBY, S. R. “Calculating synergistic and antagonistic responses of herbicide combination”. Weeds, Vol. 15, pages 20-22; 1967): • ppm=milligrams of active ingredient (=a.i.) per liter of spray mixture • X=% action by active ingredient A) using p ppm of active ingredient • Y=% action by active ingredient B) using q ppm of active ingredient.
as §2, §3
as §4, with “The nutrient broth containing the fungal spores/mycelia fragments is then added to give an end concentration of the tested compound.” left out
as §5, with “fungus harvested” for “fungus”, “a fresh culture grown on artificial media,” for “cryogenic storage”
Fungicidal activity was evaluated on a 100-0 scale (100=no disease growth; 0=well completely covered by mycelium).

Corynespora cassiicola = experiment: Example C5: mixtures against Corynespora cassiicola (target leaf spot), liquid culture; assay type: cell-based; conditions: Corynespora cassiicola, single component
Text: as §1, §2, §3, §4
as §5, with “it. The test plates were incubated at 24 C and the inhibition of growth was determined photometrically after 3-4 days at 620 nm.” for “it.”
(§6) The following mixture compositions at the reported concentration (in ppm) in tables C4-3 and C4-4 gave the following disease control in this test (Corynespora cassiicola). Fungicidal activity was evaluated on a 100-0 scale (100=no disease growth; 0=well completely covered by mycelium).

[2] = test system: Glomerella lagenarium syn. Colletotrichum lagenarium; experiment: Example C4: mixtures against Glomerella lagenarium syn. Colletotrichum lagenarium (anthracnose), liquid culture; assay type: cell-based; conditions: Colletotrichum orbiculare, single component
Text: as §1, §2, §3, §4, §5
as §6, with “(Glomerella lagenarium syn. Colletotrichum lagenarium).” for “(Corynespora cassiicola).”

[3] = test system: Mycosphaerella arachidis syn. Cercospora arachidicola; experiment: Example C1: mixtures against Mycosphaerella arachidis syn. Cercospora arachidicola (brown leaf spot), liquid culture; assay type: cell-based; conditions: Mycosphaerella arachidis, single component, 100-0 scale (100=no disease growth)
Text: as §1, §2, §3, §4, §5
as §6, with “C1-3” for “C4-3”, “C1-4” for “C4-4”, “Mycosphaerella arachidis syn. Cercospora arachidicola (Brown leaf spot of peanut).” for “(Corynespora cassiicola).”

With CO/C=C(\Oc1cc(C2CCCC2)ccc1C)C(=O)OC [Compound X.02, methyl (Z)-2-(5-cyclopentyl-2-methyl-phenoxy)-3-methoxy-prop-2-enoate] the inhibition at 0.03 ppm (Septoria tritici; 100-0 scale) was 0%, the inhibition at 0.03125 ppm (Septoria tritici; 0.03125 ppm, 100-0 scale) was 20% and the inhibition at 0.0625 ppm (Septoria tritici; 0.0625 ppm, 100-0 scale) was 90%. The inhibition at 0.1 ppm (Septoria tritici) was 70%, the “control (%)” value ([1]; 20 ppm) was 0% and the “control (%)” value ([1]; 60 ppm) was 0%. For the same molecule, the “control (%)” value ([1]; 200 ppm) was 100%, the inhibition at 2.25 g/ha (Phakopsora pachyrhizi; Phakopsora pachyrhizi, foliar, applied alone, 2.25 g/ha, read-out: Observed Activity (% of untreated)) was 13% and the inhibition at 4.5 g/ha (Phakopsora pachyrhizi; Phakopsora pachyrhizi, foliar, applied alone, 4.5 g/ha, read-out: Observed Activity (% of untreated)) was 20%. The inhibition at 1.13 g/ha (Phakopsora pachyrhizi; Phakopsora pachyrhizi, foliar, single active ingredient, soybean, preventative, 100=no disease, read-out: Observed Activity (%)) was 1%, the inhibition at 2.25 g/ha (Phakopsora pachyrhizi; Phakopsora pachyrhizi, foliar, single active ingredient, 2.25 g/ha, read-out: Observed Activity (%)) was 14% and the inhibition at 2.25 g/ha (Phakopsora pachyrhizi; Phakopsora pachyrhizi, foliar, single active ingredient, 2.25 g/ha, soybean, preventative, 100=no disease, read-out: Observed Activity (%)) was 23%. The inhibition at 4.5 g/ha (Phakopsora pachyrhizi; Phakopsora pachyrhizi, foliar, single active ingredient, 4.5 g/ha, read-out: Observed Activity (%)) was 22%, the inhibition at 4.5 g/ha (Phakopsora pachyrhizi; Phakopsora pachyrhizi, foliar, single active ingredient, 4.5 g/ha, soybean, preventative, 100=no disease, read-out: Observed Activity (%)) was 33% and the inhibition at 9 g/ha (Phakopsora pachyrhizi; Phakopsora pachyrhizi, foliar, single active ingredient, 9 g/ha, read-out: Observed Activity (%)) was 38%. For the same molecule, the inhibition at 0.03 ppm (Septoria glycines; 100-0 scale (100=no disease growth)) was 50%, the inhibition at 0.03125 ppm (Septoria glycines; 0.03125 ppm) was 70% and the inhibition at 0.1 ppm (Septoria glycines; 0.1 ppm, 100-0 scale (100=no disease growth), read-out: Activity (%)) was 70%. The inhibition at 1 ppm (Corynespora cassiicola; 1 ppm) was 20%, the inhibition at 0.03 ppm [2] was 0% and the inhibition at 0.1 ppm ([2]; 0.1 ppm) was 20%. It also gave an inhibition at 0.03 ppm ([3]; 0.03 ppm) of 50% and an inhibition at 0.03125 ppm ([3]; 0.03125 ppm) of 70%.
CO/C=C(\Oc1cc(C2CCCCC2)ccc1C)C(=O)OC [Compound X.04, methyl (Z)-2-(5-cyclohexyl-2-methyl-phenoxy)-3-methoxy-prop-2-enoate] was tested, and the inhibition at 0.00625 ppm (Septoria tritici; 0.00625 ppm, 100-0 scale) was 0%, the inhibition at 0.025 ppm (Septoria tritici; 0.025 ppm, 100-0 scale) was 70% and the inhibition at 0.03 ppm (Septoria tritici; 100-0 scale) was 50%. The inhibition at 0.1 ppm (Septoria tritici) was 70%, the “control (%)” value ([1]; 20 ppm) was 90% and the “control (%)” value ([1]; 60 ppm) was 100%. For the same molecule, the “control (%)” value ([1]; 200 ppm) was 100%, the inhibition at 1.13 g/ha (Phakopsora pachyrhizi; Phakopsora pachyrhizi, foliar, applied alone, read-out: Observed Activity (% of untreated)) was 20% and the inhibition at 18 g/ha (Phakopsora pachyrhizi; Phakopsora pachyrhizi, foliar, applied alone, 18 g/ha, read-out: Observed Activity (% of untreated)) was 74%. For the same molecule, the “Observed Activity (% of untreated)” value (Phakopsora pachyrhizi; applied alone, 2.25 g/ha) was 22% and 35% and 17%, the “Observed Activity (% of untreated)” value (Phakopsora pachyrhizi; applied alone, 4.5 g/ha) was 67% and 34% and 49% and 53% and the “Observed Activity (% of untreated)” value (Phakopsora pachyrhizi; applied alone, 9 g/ha) was 81% and 59%. It also gave an inhibition at 0.00625 ppm (Septoria glycines; 0.00625 ppm) of 0%, an inhibition at 0.025 ppm (Septoria glycines; 0.025 ppm) of 90% and an inhibition at 0.03 ppm (Septoria glycines) of 70%. For the same molecule, the inhibition at 0.2 ppm (Corynespora cassiicola; 0.2 ppm) was 20%, the inhibition at 0.03 ppm [2] was 0% and the inhibition at 0.00625 ppm ([3]; 0.00625 ppm) was 0%.
